Measurements as given in patent US20240368150A1 (Hoffmann-La Roche Inc., priority 2021, published 2024).
Like-named read-outs stand apart in the source and are kept apart here.

Key:
primary human T-cells [1] = experiment: Proliferation assay after 5 days (CellTiter-Glo, CD3 stimulation; PBS counter screen); assay type: cell-based; conditions: Homo sapiens, T-cell, 120 h, CD3 stimulation; for Emax: 5 days, normalized to reference compound A1 as stimulator control = 100%, DMSO neutral control, read-out: Emax proliferation (% activation); for EC50: primary human T-cells, CellTiter-Glo after 5 days, EC50 of fitted sigmoidal curve, read-out: Tcell Proliferation CD3 EC50
Summary of the method: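 Read-out: CellTiter-Glo 2.0 luminescence (ATP ∝ cell number) at day 5 after compound addition. Compounds activating unstimulated cells or reducing viability flagged.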

primary human T-cells [2] = system: primary human T-cells

EC50 (primary human T-cells [2]) [nM] | SMILES | Emax (primary human T-cells [1]) [%] | EC50 (primary human T-cells [1]) [nM]
780 | N[C@H]1CS(=O)(=O)c2ccc(-c3nnc(CC(F)(F)F)o3)c(F)c2N(Cc2ccc(Cl)cc2)C1=O [Example 217, (3R)-3-amino-5-[(4-chlorophenyl)methyl]-6-fluoro-1,1-dioxo-7-[5-(2,2,2-trifluoroethyl)-1,3,4-oxadiazol-2-yl]-2,3-dihydro-1λ^6,5-benzothiazepin-4-one] | 221 | 2110
7860 | Cc1c(F)c(-c2nnc(C(C)(C)C)o2)cc2c1S(=O)(=O)C[C@H](N)C(=O)N2Cc1ccc(Cl)cc1 [Example 218, (3R)-3-amino-7-(5-tert-butyl-1,3,4-oxadiazol-2-yl)-5-[(4-chlorophenyl)methyl]-8-fluoro-9-methyl-1,1-dioxo-2,3-dihydro-1λ^6,5-benzothiazepin-4-one] | 80 | 3890
3210 | CC(C)(C)c1nnc(-c2cc3c(cc2F)S(=O)(=O)C[C@H](N)C(=O)N3Cc2cccc(Cl)c2)o1 [Example 219, (3R)-3-amino-7-(5-tert-butyl-1,3,4-oxadiazol-2-yl)-5-[(3-chlorophenyl)methyl]-8-fluoro-1,1-dioxo-2,3-dihydro-1λ^6,5-benzothiazepin-4-one] | 105 | 2740
382 | CC(C)(C)c1nnc(-c2cc3c(cc2F)S(=O)(=O)C[C@H](N)C(=O)N3Cc2ccc(OC3CCOC3)cc2)o1 (stereo partly drawn) [Example 221, (3R)-3-amino-7-(5-tert-butyl-1,3,4-oxadiazol-2-yl)-8-fluoro-1,1-dioxo-5-[(4-tetrahydrofuran-3-yloxyphenyl)methyl]-2,3-dihydro-1λ^6,5-benzothiazepin-4-one] | 107 | 255
535 | CC(C)(C)c1nnc(-c2cc3c(cc2F)S(=O)(=O)C[C@H](N)C(=O)N3Cc2ccc(OCC(F)F)cc2)o1 [Example 222, (3R)-3-amino-7-(5-tert-butyl-1,3,4-oxadiazol-2-yl)-5-[[4-(2,2-difluoroethoxy)phenyl]methyl]-8-fluoro-1,1-dioxo-2,3-dihydro-1λ^6,5-benzothiazepin-4-one] | 119 | 235
> 20000 | CC(C)(C)c1nnc(-c2cc3c(cc2F)S(=O)(=O)C[C@H](N)C(=O)N3Cc2ccc(OC(F)F)cc2)o1 [Example 223, (3R)-3-amino-7-(5-tert-butyl-1,3,4-oxadiazol-2-yl)-5-[[4-(difluoromethoxy)phenyl]methyl]-8-fluoro-1,1-dioxo-2,3-dihydro-1λ^6,5-benzothiazepin-4-one] | 128 | < 162
> 20000 | CC(C)(C)c1nnc(-c2cc3c(cc2F)S(=O)(=O)C[C@H](N)C(=O)N3Cc2ccccn2)o1 [Example 224, (3R)-3-amino-7-(5-tert-butyl-1,3,4-oxadiazol-2-yl)-8-fluoro-1,1-dioxo-5-(2-pyridylmethyl)-2,3-dihydro-1λ^6,5-benzothiazepin-4-one] | 31 | > 20000
4370 | COc1ccc(CN2C(=O)[C@@H](N)CS(=O)(=O)c3cc(F)c(-c4nnc(C(C)(C)C)o4)cc32)cn1 [Example 225, (3R)-3-amino-7-(5-tert-butyl-1,3,4-oxadiazol-2-yl)-8-fluoro-5-[(6-methoxy-3-pyridyl)methyl]-1,1-dioxo-2,3-dihydro-1λ^6,5-benzothiazepin-4-one] | 109 | 1890
> 20000 | CC(C)(C)c1nnc(-c2cc3c(cc2F)S(=O)(=O)C[C@H](N)C(=O)N3Cc2ccc(CN)cc2)o1 [Example 226, (3R)-3-amino-5-[[4-(aminomethyl)phenyl]methyl]-7-(5-tert-butyl-1,3,4-oxadiazol-2-yl)-8-fluoro-1,1-dioxo-2,3-dihydro-1λ^6,5-benzothiazepin-4-one] | 25 | > 20000
> 20000 | CC(C)(C)c1nnc(-c2cc3c(cc2F)S(=O)(=O)C[C@H](N)C(=O)N3Cc2ccccc2Cl)o1 [Example 227, (3R)-3-amino-7-(5-tert-butyl-1,3,4-oxadiazol-2-yl)-5-[(2-chlorophenyl)methyl]-8-fluoro-1,1-dioxo-2,3-dihydro-1λ^6,5-benzothiazepin-4-one] | 39 | > 20000
5200 | COc1ccc(CN2C(=O)[C@@H](N)CS(=O)(=O)c3cc(F)c(-c4nnc(C(C)(C)C)o4)cc32)nc1 [Example 228, (3R)-3-amino-7-(5-tert-butyl-1,3,4-oxadiazol-2-yl)-8-fluoro-5-[(5-methoxy-2-pyridyl)methyl]-1,1-dioxo-2,3-dihydro-1λ^6,5-benzothiazepin-4-one] | 112 | 1740
2440 | CC(C)(C)c1nnc(-c2cc3c(cc2F)S(=O)(=O)C[C@H](N)C(=O)N3Cc2ccc(S(C)(=O)=O)cc2)o1 [Example 229, (3R)-3-amino-7-(5-tert-butyl-1,3,4-oxadiazol-2-yl)-8-fluoro-5-[(4-methylsulfonylphenyl)methyl]-1,1-dioxo-2,3-dihydro-1λ^6,5-benzothiazepin-4-one] | 116 | 1680
105 | COc1ccc(CN2C(=O)[C@@H](N)CS(=O)(=O)c3cc(F)c(-c4nnc(C(C)(C)C)o4)cc32)cc1 [Example 230] | 119 | 89.3
295 | CC(C)(C)c1nnc(-c2cc3c(cc2F)S(=O)(=O)C[C@H](N)C(=O)N3Cc2ccc(F)cc2)o1 [Example 231, (3R)-3-amino-7-(5-tert-butyl-1,3,4-oxadiazol-2-yl)-8-fluoro-5-[(4-fluorophenyl)methyl]-1,1-dioxo-2,3-dihydro-1\6,5-benzothiazepin-4-one] | 114 | 257
95 | CC(C)(C)c1nnc(-c2cc3c(cc2F)S(=O)(=O)C[C@H](N)C(=O)N3Cc2ccc(Oc3ccccc3)cc2)o1 [Example 233] | 127 | 86.6
5340 | CC(C)(C)c1nnc(-c2cc3c(cc2F)S(=O)(=O)C[C@H](N)C(=O)N3Cc2ccc(OCCO)cc2)o1 [Example 234, (3R)-3-amino-7-(5-tert-butyl-1,3,4-oxadiazol-2-yl)-8-fluoro-5-[[4-(2-hydroxyethoxy)phenyl]methyl]-1,1-dioxo-2,3-dihydro-1λ^6,5-benzothiazepin-4-one] | 130 | 1200
170 | CC(=O)NCCCCCCCCCCCOc1ccc(CN2C(=O)[C@@H](N)CS(=O)(=O)c3cc(F)c(-c4nnc(C(C)(C)C)o4)cc32)cc1 [Example 235, N-[11-[4-[[(3R)-3-amino-7-(5-tert-butyl-1,3,4-oxadiazol-2-yl)-8-fluoro-1,1,4-trioxo-2,3-dihydro-1λ^6,5-benzothiazepin-5-yl]methyl]phenoxy]undecyl]acetamide] | 108 | 46.6
3230 | CC(C)(C)c1nnc(-c2cc3c(cc2F)S(=O)(=O)C[C@H](N)C(=O)N3Cc2ccc(OCC(N)=O)cc2)o1 [Example 236, 2-[4-[[(3R)-3-amino-7-(5-tert-butyl-1,3,4-oxadiazol-2-yl)-8-fluoro-1,1,4-trioxo-2,3-dihydro-1λ^6,5-benzothiazepin-5-yl]methyl]phenoxy]acetamide] | 98 | 3240
769 | CC(C)(C)c1nnc(-c2cc3c(cc2F)S(=O)(=O)C[C@H](N)C(=O)N3Cc2cnc(C3CC3)nc2)o1 [Example 238, (3R)-3-amino-7-(5-tert-butyl-1,3,4-oxadiazol-2-yl)-5-[(2-cyclopropylpyrimidin-5-yl)methyl]-8-fluoro-1,1-dioxo-2,3-dihydro-1λ^6,5-benzothiazepin-4-one] | 102 | 3070
5580 | CC(C)(C)c1nnc(-c2cc3c(cc2F)S(=O)(=O)C[C@H](N)C(=O)N3Cc2ccc(C3(O)COC3)cc2)o1 [Example 239, (3R)-3-amino-7-(5-tert-butyl-1,3,4-oxadiazol-2-yl)-8-fluoro-5-[[4-(3-hydroxyoxetan-3-yl)phenyl]methyl]-1,1-dioxo-2,3-dihydro-1λ^6,5-benzothiazepin-4-one] | 69 | 5100
6390 | CC(C)(C)c1nnc(-c2cc3c(cc2F)S(=O)(=O)C[C@H](N)C(=O)N3Cc2ccc(S(C)(=O)=O)cc2F)o1 [Example 240, (3R)-3-amino-7-(5-tert-butyl-1,3,4-oxadiazol-2-yl)-8-fluoro-5-[(2-fluoro-4-methylsulfonyl-phenyl)methyl]-1,1-dioxo-2,3-dihydro-1λ^6,5-benzothiazepin-4-one] | 74 | 5550
> 10000 | CCc1coc(CN2C(=O)[C@@H](N)CS(=O)(=O)c3cc(F)c(-c4nnc(C(C)(C)C)o4)cc32)n1 [Example 241, (3R)-3-amino-7-(5-tert-butyl-1,3,4-oxadiazol-2-yl)-5-[(4-ethyloxazol-2-yl)methyl]-8-fluoro-1,1-dioxo-2,3-dihydro-1λ^6,5-benzothiazepin-4-one] | 73 | 2940
4800 | CC(C)(C)c1nnc(-c2cc3c(cc2F)S(=O)(=O)C[C@H](N)C(=O)N3Cc2ccc(S(C)(=O)=O)c(F)c2)o1 [Example 242, (3R)-3-amino-7-(5-tert-butyl-1,3,4-oxadiazol-2-yl)-8-fluoro-5-[(3-fluoro-4-methylsulfonyl-phenyl)methyl]-1,1-dioxo-2,3-dihydro-1λ^6,5-benzothiazepin-4-one] | 92 | 3400
918 | CC(C)(C)c1nnc(-c2cc3c(cc2F)S(=O)(=O)C[C@H](N)C(=O)N3Cc2ccc(OCC(F)(F)F)cc2)o1 [Example 243, (3R)-3-amino-7-(5-tert-butyl-1,3,4-oxadiazol-2-yl)-8-fluoro-1,1-dioxo-5-[[4-(2,2,2-trifluoroethoxy)phenyl]methyl]-2,3-dihydro-1λ^6,5-benzothiazepin-4-one] | 129 | 246
